# Results as given in US5380715A, “Ap4 A as a hypotensive agent” (Fujirebio Inc., priority 1992, dated 1995).
# Entries after “also recorded” stand apart in the source; their conditions may differ.
# How the values were obtained:
# rats [1] = assay: Recovery of blood pressure after gradual hypotension in rats; format: in vivo, male SD rats; settings: rat
# Description: FIG. 1 is a graph showing the recovery of the blood pressure of rats anesthetized with enflurane with time, when each of Ap4A ( ), PG E1 ( ) and nitroglycerin ( ) was used as a test drug to attain gradual hypotension, with the blood pressure before the administration of each test drug being set 100% for reference.
# The recovery of blood pressure after gradual hypotension by use of each of Ap4A, PG E1 and nitroglycerin was also tested.
# The control values were obtained before the administration of each test drug. Each test drug was then administered using a syringe in a dose-dependent manner for 15 minutes. The percentage (%) of the decrease of blood pressure was determined when stabilized. Changes in heart rate (H.R.) at the administration of each test drug were measured. Furthermore,the recovery of mean blood pressure after intravenous infusion of each test drug was also determined from the decrease in heart rate and the blood pressure at a maximum dose of each test drug.
# In a test similar to the above, each of Ap4A, PG E1, and nitroglycerin was administered to rats, so that about 65% fall in blood pressure, about 55% fall in blood pressure, and about 35% fall in blood pressure were stepwise attained. With respect to each agent, the recovery of blood pressure was tested.
# [2] = words; cited from earlier work
# rabbit erythrocytes = assay: Inhibitory effect on rabbit erythrocyte crenation induced by A23187; format: cell-based; settings: for Crenation: x ± SE; for inhibition of A23187-induced erythrocyte crenation: result in words
# Description: Fresh blood was collected from Japanese white rabbits weighing 2-3 kg. Blood samples were anticoagulated with citric acid (1 ml 3.8% Citric acid solution+10 ml blood). These samples were centrifuged at room temperature for 15 min at 1100 rpm. After centrifugation of the defibrinated blood, the upper cell layers were discarded. The erythrocytes (pellet) were washed 4 times in a medium containing; 56.6 mM Tris-HCl, pH 7.6, 100 mM NaCl, 4.6 mM KCl,0.64 mM MgCl2. The erythrocytes were preincubated with saline solution or Ap4 A at 37° C for 10min and then A23187 1×10^-6 M and CaCl2 5×10^-7 M were added to the Mixture. After incubation at 37° C. for 20 min, the reaction mixture was centrifugated at 1000 rpm for 10 min. The precipitation was fixed by addition of 0.1M cacodylate buffer containing 0.22M sucrose. The number of transforming erythrocytes was counted using a microscope.
# isolated rat heart = assay: Protective effect on deoxygenation-induced cardiac damage (Langendorff heart); design: species or system male SD rats; settings: 1×10^-4 M, 33 min global ischemia; words
# Description: The protective effect of Ap4A against ischemia by use of a Langendorff heart (Aronson, CE. and Serlick, ER. Toxicol. Appl. Pharmac. 38, 479-488 (1976)) was tested.
# Deoxygenation-induced cardiac damage according to the method of Aronson & Serlich (Toxical. appl. Parmac. 38, 479-488, 1976) with slight modifications. Male SD rats (Charles River Japan Inc.) weighing 320 to 390 g were anesthetized with ether, and heart quickly isolated. The isolated rat heart was mounted and perfused with Krebs-Henselite solution (118 mM NaCl, 4.7 mM KCl, 2.5 mM CaCl2, 1.2 mM MgSO4, 1.2 mM KH2 PO4, 25 mM NaHCO3 and 10 mM glucose) bubbled with 95% O2 +5% CO2 at a flow rates of 14 ml/min. at 37° C. The myocardial function was monitored by the left ventricular pressure (L.V.P.), differential values of L.V.P. (dp/dt), heart rate (H.R.) and perfused pressure (P.P.) through a branch of an aortic canula mounted on the heart. After equilibrate for 40 min., global ischemia was produced by stopping the perfusing solution and the heart was incubated for 33 min. in 50 ml Krebs-Henselite bubble with N2 gas (control). 33 min. later, the buffer solution was removed. The perfusion was re-started, and the myocardial function was measured. The heart was incubated in Krebs-Henselite solution containing Ap4A 1×10^-4 M during global ischemia.
# rats [3] = assay: Effects on cerebral blood flow, blood pressure and heart rate in anesthetized rats; format: in vivo, male SD rats; settings: rat
# Description: Male SD rats (Charles River Japan Inc.) were anesthetized with intravenous urethane (0.5 g/kg)+α-chloralose (80 mg/kg).
# A femoral artery was catheterized to monitor the blood pressure and heart rate, while a femoral vein was catheterized for the aministration of each of the test drugs.
# The head of each rat was fixed to a brain position fixing device and a hole was made at a top portion of the cranium. A laser blood flow probe was mounted on the cranium so as to touch the surface of the cerebral cortex through the hole, whereby the cerebral blood flow thereof was measured. A predetermined amount of Ap4A was applied by bolus injection and by infusion.
# [4] = system: rabbit mesenteric arteries; settings: words; cited from earlier work
structure (smiles),measurement,setting,value
"Nc1ncnc2c1ncn2[C@@H]1O[C@H](COP(=O)(O)OP(=O)(O)OP(=O)(O)OP(=O)(O)OC[C@H]2O[C@@H](n3cnc4c(N)ncnc43)[C@H](O)[C@@H]2O)[C@@H](O)[C@H]1O [Ap4A, diadenosine 5',5'""-p^1,p^4 -tetraphosphate]",recovered blood pressure (before administration = 100%),rats [1]; 1 minute,about 70%
same,recovered blood pressure (before administration = 100%),rats [1]; 5 minutes,about 90%
same,recovered blood pressure (before administration = 100%),rats [1]; 10 minutes,100%
same,fall in blood pressure attained before recovery,rats [1]; stepwise,about 65%
same,rapidness of the recovery of blood pressure,rats [1]; order in words,Ap4A>PG E1 >nitroglycerin
same,rebound hypertension,rats [1]; result in words,without rebound hypertension
same,arrhythmic effect,[2],an arrhythmic effect
same,Crenation,"rabbit erythrocytes; 10^-3 M, P < 0.01 vs control",19.2 ± 9.1%
same,Crenation,"rabbit erythrocytes; 10^-4 M, P < 0.05 vs control",37.0 ± 6.4%
same,Crenation,rabbit erythrocytes; 10^-5 M,49.1 ± 3.9%
same,inhibition at 1000 µM,"rabbit erythrocytes; Oryctolagus cuniculus, Erythrocyte, 10^-3 M",66.1%
same,inhibition at 100 µM,"rabbit erythrocytes; Oryctolagus cuniculus, Erythrocyte, 10^-4 M",34.6%
same,inhibition at 10 µM,"rabbit erythrocytes; Oryctolagus cuniculus, Erythrocyte, 10^-5 M",13.3%
same,IC50,"rabbit erythrocytes; Oryctolagus cuniculus, Erythrocyte, A23187-induced crenation",300 µM
same,inhibition of A23187-induced erythrocyte crenation,rabbit erythrocytes,significant inhibitory effect
same,inhibition of A23187-induced erythrocyte crenation,rabbit erythrocytes; listed as Ap4 A,A23187-induced rabbit erythrocyte crenation was inhibited
same,"prevention of cardiac damage (loss of L.V.P., dp/dt and H.R.)",isolated rat heart,"significantly prevented cardiac damage (loss of L.V.P., dp/dt and H.R.) induced by deoxygenation; also recorded: the above-mentioned impairment in the untreated Langendorff heart was found to be prevented"
same,B.P. Δ%,rats [3]; bolus injection 0.1 μg/kg,0%
same,C.B.F. Δ%,rats [3]; bolus injection 0.1 μg/kg,2.7%
same,H.R. Δ%,rats [3]; bolus injection 0.1 μg/kg,4.0%
same,B.P. Δ%,rats [3]; bolus injection 0.3 μg/kg,0%
same,C.B.F. Δ%,rats [3]; bolus injection 0.3 μg/kg,7.9%
same,H.R. Δ%,rats [3]; bolus injection 0.3 μg/kg,-7.0%
same,B.P. Δ%,rats [3]; bolus injection 1 μg/kg,5.0 ± 2.9%
same,C.B.F. Δ%,rats [3]; bolus injection 1 μg/kg,9.3 ± 2.5%
same,H.R. Δ%,rats [3]; bolus injection 1 μg/kg,10.3 ± 10.1%
same,B.P. Δ%,rats [3]; bolus injection 3 μg/kg,-6.2 ± 5.0%
same,C.B.F. Δ%,rats [3]; bolus injection 3 μg/kg,10.0 ± 2.0%
same,H.R. Δ%,rats [3]; bolus injection 3 μg/kg,4.6 ± 3.4%
same,B.P. Δ%,rats [3]; bolus injection 10 μg/kg,-9.9 ± 4.6%
same,C.B.F. Δ%,rats [3]; bolus injection 10 μg/kg,21.7 ± 6.0%
same,H.R. Δ%,rats [3]; bolus injection 10 μg/kg,3.2 ± 2.0%
same,B.P. Δ%,rats [3]; bolus injection 30 μg/kg,-23.2 ± 3.5%
same,C.B.F. Δ%,rats [3]; bolus injection 30 μg/kg,16.8 ± 3.5%
same,H.R. Δ%,rats [3]; bolus injection 30 μg/kg,6.4 ± 1.2%
same,B.P. Δ%,rats [3]; bolus injection 100 μg/kg,-34.4 ± 2.5%
same,C.B.F. Δ%,rats [3]; bolus injection 100 μg/kg,15.8 ± 4.0%
same,H.R. Δ%,rats [3]; bolus injection 100 μg/kg,7.4 ± 3.5%
same,B.P. Δ%,rats [3]; bolus injection 300 μg/kg,-40.5 ± 5.2%
same,C.B.F. Δ%,rats [3]; bolus injection 300 μg/kg,9.8 ± 4.0%
same,H.R. Δ%,rats [3]; bolus injection 300 μg/kg,10.9 ± 4.5%
same,B.P. Δ%,rats [3]; bolus injection 1 mg/kg,-50.4 ± 1.4%
same,C.B.F. Δ%,rats [3]; bolus injection 1 mg/kg,8.5 ± 3.4%
same,H.R. Δ%,rats [3]; bolus injection 1 mg/kg,7.4 ± 6.0%
same,B.P. Δ%,rats [3]; bolus injection 3 mg/kg,-54.0 ± 2.5%
same,C.B.F. Δ%,rats [3]; bolus injection 3 mg/kg,23.7 ± 9.3%
same,H.R. Δ%,rats [3]; bolus injection 3 mg/kg,6.2 ± 21.1%
same,B.P. Δ%,rats [3]; bolus injection 10 mg/kg,-63.5 ± 5.6%
same,C.B.F. Δ%,rats [3]; bolus injection 10 mg/kg,46.3 ± 11.5%
same,H.R. Δ%,rats [3]; bolus injection 10 mg/kg,-78.8 ± 2.7%
same,B.P. Δ%,rats [3]; bolus injection 30 mg/kg,-60.7 ± 7.0%
same,C.B.F. Δ%,rats [3]; bolus injection 30 mg/kg,34.0 ± 16.9%
same,cerebral blood flow,"rats [3]; bolus injection, result in words",improved by bolus injection of Ap4A
same,increase in C.B.F.,"rats [3]; bolus, when about 20-40% fall in blood pressure",10-20%
same,cerebral blood flow,"rats [3]; continuous administration, result in words (FIG. 2)",The same effects were also observed in the continuous administration of Ap4A; also recorded: Cerebral blood flow was increased during continuous administration of Ap4A
same,vasodilating effect,[4],a vasodilating effect of rabbit mesenteric arteries
